In patent US20230278972A1, “SUBSTITUTED HALOALKYL SULFONANILIDE HERBICIDES” (FMC Corporation, priority 2020, published 2023):

Key:
Assay type in all cases: in vivo
[1] = system: ragweed (common ragweed, Ambrosia artemisiifolia); test: Test A preemergence, ragweed; conditions: Preemergence; for Ragweed plant response rating: 125 g ai/ha, visual injury on 0 to 100 scale (0 no effect, 100 complete control), approximately 10 days; for Plant response rating, Ragweed: 500 g ai/ha, 0 to 100 scale (0 no effect, 100 complete control)
How it was run: (§1)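 Seeds are sown in loam mixed with sand and sprayed on the soil surface right after planting for the preemergence test. Postemergence pots are sprayed once seedlings reach 2 to 10 cm at the one- to two-leaf stage. The same surfactant-containing, non-phytotoxic solvent formulation serves both.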

kochia (Bassia scoparia) [2] = test: Test A postemergence, kochia; conditions: Postemergence, 0 to 100 scale (0 no effect, 100 complete control); for Plant response rating, Kochia: 125 g ai/ha, visual injury approx. 10 days; for Kochia plant response rating: 500 g ai/ha, visual injury vs untreated controls after approx. 10 days
How it was run: as §1

[3] = system: galium (catchweed bedstraw, Galium aparine); test: Test A postemergence, galium; conditions: Postemergence, 0 to 100 scale (0 no effect, 100 complete control); for Plant response rating, Galium: 125 g ai/ha, visual injury approx. 10 days; for Galium plant response rating: 500 g ai/ha, visual injury vs untreated controls after approx. 10 days
How it was run: (§2)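 Preemergence: pigweed seeds in loam soil–sand blend received a directed soil spray of test chemicals in a non-phytotoxic solvent with surfactant. Postemergence: barnyardgrass, wheat and galium in pots of the same soil, 2 to 10 cm tall at one- to two-leaf stage, sprayed with the same formulation.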

[4] = system: Foxtail, Giant (giant foxtail, Setaria faberi); test: Test A preemergence, Foxtail, Giant; conditions: Preemergence; for Foxtail, Giant plant response rating: 125 g ai/ha, visual injury on 0 to 100 scale (0 no effect, 100 complete control), approximately 10 days; for Plant response rating, Foxtail, Giant: 500 g ai/ha, 0 to 100 scale (0 no effect, 100 complete control)
How it was run: as §1

[5] = system: blackgrass (Alopecurus myosuroides); test: Test A postemergence, blackgrass; conditions: Postemergence, 0 to 100 scale (0 no effect, 100 complete control); for Plant response rating, Blackgrass: 125 g ai/ha, visual injury approx. 10 days; for Blackgrass plant response rating: 500 g ai/ha, visual injury vs untreated controls after approx. 10 days
How it was run: as §1

[6] = system: Foxtail, Giant (giant foxtail, Setaria faberi); test: Test A postemergence, Foxtail, Giant; conditions: Postemergence, 0 to 100 scale (0 no effect, 100 complete control); for Plant response rating, Foxtail, Giant: 125 g ai/ha, visual injury approx. 10 days; for Foxtail, Giant plant response rating: 500 g ai/ha, visual injury vs untreated controls after approx. 10 days
How it was run: as §1

[7] = system: Ryegrass, Italian (Italian ryegrass, Lolium multiflorum); test: Test A postemergence, Ryegrass, Italian; conditions: Postemergence, 0 to 100 scale (0 no effect, 100 complete control); for Plant response rating, Ryegrass, Italian: 125 g ai/ha, visual injury approx. 10 days; for Ryegrass, Italian plant response rating: 500 g ai/ha, visual injury vs untreated controls after approx. 10 days
How it was run: as §1

[8] = system: Ryegrass, Italian (Italian ryegrass, Lolium multiflorum); test: Test A preemergence, Ryegrass, Italian; conditions: Preemergence; for Ryegrass, Italian plant response rating: 125 g ai/ha, visual injury on 0 to 100 scale (0 no effect, 100 complete control), approximately 10 days; for Plant response rating, Ryegrass, Italian: 500 g ai/ha, 0 to 100 scale (0 no effect, 100 complete control)
How it was run: as §1

[9] = system: pigweed (Amaranthus retroflexus); test: Test A postemergence, pigweed; conditions: Postemergence, 0 to 100 scale (0 no effect, 100 complete control); for Plant response rating, Pigweed: 125 g ai/ha, visual injury approx. 10 days; for Pigweed plant response rating: 500 g ai/ha, visual injury vs untreated controls after approx. 10 days
How it was run: as §1

[10] = system: ragweed (common ragweed, Ambrosia artemisiifolia); test: Test A postemergence, ragweed; conditions: Postemergence, 0 to 100 scale (0 no effect, 100 complete control); for Plant response rating, Ragweed: 125 g ai/ha, visual injury approx. 10 days; for Ragweed plant response rating: 500 g ai/ha, visual injury vs untreated controls after approx. 10 days
How it was run: as §1

[11] = system: barnyardgrass (Echinochloa crus-galli); test: Test A preemergence, barnyardgrass; conditions: Preemergence; for Barnyardgrass plant response rating: 125 g ai/ha, visual injury on 0 to 100 scale (0 no effect, 100 complete control), approximately 10 days; for Plant response rating, Barnyardgrass: 500 g ai/ha, 0 to 100 scale (0 no effect, 100 complete control)
How it was run: as §1

[12] = system: pigweed (Amaranthus retroflexus); test: Test A preemergence, pigweed; conditions: for Pigweed plant response rating: 125 g ai/ha, visual injury on 0 to 100 scale (0 no effect, 100 complete control), approximately 10 days; for Plant response rating, Pigweed: 500 g ai/ha, 0 to 100 scale (0 no effect, 100 complete control)
Text: Seeds of plant species selected from barnyardgrass (Echinochloa crus-galli), kochia (Bassia scoparia), ragweed (common ragweed, Ambrosia artemisiifolia), Ryegrass, Italian (Italian ryegrass, Lolium multiflorum), Foxtail, Giant (giant foxtail, Setaria faberi), and pigweed (Amaranthus retroflexus) were planted into a blend of loam soil and sand and treated preemergence with a directed soil spray using test chemicals formulated in a non-phytotoxic solvent mixture which included a surfactant. At the same time, plants selected from these weed species and also wheat (Triticum aestivum), corn (Zea mays), blackgrass (Alopecurus myosuroides), and galium (catchweed bedstraw, Galium aparine) were planted in pots containing the same blend of loam soil and sand and treated with postemergence applications of test chemicals formulated in the same manner. Plants ranged in height from 2 to 10 cm and were in the one- to two-leaf stage for the postemergence treatment. […] A dash (-) response means no test result.

kochia (Bassia scoparia) [13] = test: Test A preemergence, kochia; conditions: Preemergence; for Kochia plant response rating: 125 g ai/ha, visual injury on 0 to 100 scale (0 no effect, 100 complete control), approximately 10 days; for Plant response rating, Kochia: 500 g ai/ha, 0 to 100 scale (0 no effect, 100 complete control)
How it was run: as §1

[14] = system: wheat (Triticum aestivum); test: Test A postemergence, wheat; conditions: Postemergence, 0 to 100 scale (0 no effect, 100 complete control); for Plant response rating, Wheat: 125 g ai/ha, visual injury approx. 10 days; for Wheat plant response rating: 500 g ai/ha, visual injury vs untreated controls after approx. 10 days
How it was run: as §2

corn (Zea mays) = test: Test A postemergence, corn; conditions: Postemergence, 0 to 100 scale (0 no effect, 100 complete control); for Plant response rating, Corn: 125 g ai/ha, visual injury approx. 10 days; for Corn plant response rating: 500 g ai/ha, visual injury vs untreated controls after approx. 10 days
How it was run: as §1

Row | Compound | Ragweed plant response rating [1] | Plant response rating, Ragweed [1] | Plant response rating, Kochia (kochia (Bassia scoparia) [2]) | Kochia plant response rating (kochia (Bassia scoparia) [2]) | Plant response rating, Galium [3] | Galium plant response rating [3] | Foxtail, Giant plant response rating [4] | Plant response rating, Foxtail, Giant [4] | Plant response rating, Blackgrass [5] | Blackgrass plant response rating [5] | Plant response rating, Foxtail, Giant [6] | Foxtail, Giant plant response rating [6] | Plant response rating, Ryegrass, Italian [7] | Ryegrass, Italian plant response rating [7] | Ryegrass, Italian plant response rating [8] | Plant response rating, Ryegrass, Italian [8] | Plant response rating, Pigweed [9] | Pigweed plant response rating [9] | Plant response rating, Ragweed [10] | Ragweed plant response rating [10] | further results
1 | Cc1cc(C)c(-c2cc(Cl)nn(C)c2=O)cc1NS(=O)(=O)C(F)(F)F [Compound 72] | 80 | 90 | 40 | 90 | 70 | 90 | 100 | 100 | 50 | 80 | 90 | 90 | 60 | 80 | 90 | 100 | 60 | 80 | 20 | 70 | Barnyardgrass plant response rating [11]: 90; Plant response rating, Barnyardgrass [11]: 100; Pigweed plant response rating [12]: 80; Plant response rating, Pigweed [12]: 100; Kochia plant response rating (kochia (Bassia scoparia) [13]): 100; Plant response rating, Kochia (kochia (Bassia scoparia) [13]): 100; Plant response rating, Wheat [14]: 60; Wheat plant response rating [14]: 70; Plant response rating, Corn (corn (Zea mays)): 0; Corn plant response rating (corn (Zea mays)): 50
2 | Cc1cc(C)c(N(S(C)(=O)=O)S(=O)(=O)C(F)(F)F)cc1-c1ccnn(C)c1=O [Compound 73] | 80 | 80 | 10 | 70 | 90 | 90 | 100 | 100 | 40 | 80 | 80 | 90 | 60 | 90 | 90 | 100 | 60 | 80 | 20 | 80 | Barnyardgrass plant response rating [11]: 90; Plant response rating, Barnyardgrass [11]: 90; Pigweed plant response rating [12]: 90; Plant response rating, Pigweed [12]: 100; Kochia plant response rating (kochia (Bassia scoparia) [13]): 80; Plant response rating, Kochia (kochia (Bassia scoparia) [13]): 90; Plant response rating, Wheat [14]: 60; Wheat plant response rating [14]: 70; Plant response rating, Corn (corn (Zea mays)): 10; Corn plant response rating (corn (Zea mays)): 70
3 | Cc1cc(C)c(N(S(=O)(=O)C(F)(F)F)S(=O)(=O)C(F)(F)F)cc1-c1cc(Cl)nn(C)c1=O [Compound 74] | 70 | 90 | 30 | 90 | 50 | 90 | 100 | 100 | 40 | 50 | 40 | 80 | 20 | 70 | 80 | 100 | 80 | 90 | 0 | 30 | Barnyardgrass plant response rating [11]: 90; Plant response rating, Barnyardgrass [11]: 100; Pigweed plant response rating [12]: 60; Plant response rating, Pigweed [12]: 100; Kochia plant response rating (kochia (Bassia scoparia) [13]): 70; Plant response rating, Kochia (kochia (Bassia scoparia) [13]): 100; Plant response rating, Wheat [14]: 60; Wheat plant response rating [14]: 70; Plant response rating, Corn (corn (Zea mays)): 0; Corn plant response rating (corn (Zea mays)): 10
